# Square brackets hold non-standard residues; d marks the D form. Ends that are not written are not given here. Peptide text beside a SMILES is read from it. ξ: configuration not given here. ξNMeBmt = C/C=C/C[C@@H](C)[C@@H](O)C(NC)C(=O)O; NMeL = CN[C@@H](CC(C)C)C(=O)O; NMeV = CN[C@H](C(=O)O)C(C)C; Abu = CC[C@H](N)C(=O)O; Sar = CNCC(=O)O
# Columns and labels:
# AtT20 cells [1] = assay: CRF-induced cAMP accumulation in AtT20 cells; format: cell-based, mouse; conditions: for cAMP response to CRF after lowering intracellular free Ca2+: EGTA 2 mmol/l, nimodipine 1 μmol/l, BAPTA-AM 20 μmol/l in preincubation, IBMX 0.5 mmol/l; for CRF-induced cAMP formation: 1 μmol/l FK506, 10 nmol/l CRF, calcium-depleted cells
# Experimental: Experiments for cAMP were all carried out in Hanks balanced salt solution containing 2 mM CaCl2 and 1 mM MgSO4 buffered with 25 mM HEPES pH 7.4 and supplemented with 0.25% (w/v) of bovine serum albumin. The cells were preincubated in serum free medium for 1 hour, after which blockers of phosphosdiesterase (isobutylmethylxanthine 0.5 mM (IBMX) and/or rolipram 0.1 mM) along with various other treatments were applied for 30 minutes at 37° C. Subsequently the cells were cooled to 22° C. for 5 minutes in a water bath and agonists were added for 10 minutes. The reaction was stopped by the addition of 0.2 mol/l HCl to achieve a final concentration of 0.1 mol/l (Brooker et al, (1979) Adv. in Cyclic Nucl. Res. Vol. 10, G. Brooker, P. Greengard and G. A. Robinson, Raven Press, New York, 2-34).
# In some experiments cells were preincubated for 30 minutes in medium containing 2 mmol/l EGTA and no added Ca^2+, supplemented with 5 μmol/l A23187 and 2.5 μmol/l nifedipine in order to deplete rapidly mobilized cellular stores of Ca^2+. […] The rationale for this pretreatment is that calcineurin reportedly influences L-channel activity (Lai et al, (1993) J. Neurochem. 61:1333-1339; and Armstrong et al, (1987) Proc. Natl. Acad. Sci. U.S.A. 84:2518-2522), whereas the treatment regimen used here would make Ca^2+ entry independent of this regulation.
# These compounds were made up in ethanol at 10^−3 mol/l and diluted with the incubation medium to the desired final concentrations. In some cases cells were preincubated with L685,818 the structural analogue of FK506 that binds to FKBP-12 and inhibits prolyl-isomerase activity but is devoid of immunosuppressant activity (Dumont et al, (1992) J. Exp. Med. 176:751-760) for 10 minutes before the addition of FK506 for 30 minutes at 37° C.
# AtT20 cells [2] = assay: cAMP accumulation induced by β-adrenergic stimulation (isoproterenol) in AtT20 cells; format: cell-based, mouse
# AtT20 cells [3] = assay: forskolin-evoked cAMP accumulation in AtT20 cells; format: cell-based, mouse
# Experimental: The cells were preincubated in serum free medium for 1 hour, after which blockers of phosphosdiesterase (isobutylmethylxanthine 0.5 mM (IBMX) and/or rolipram 0.1 mM) along with various other treatments were applied for 30 minutes at 37° C. Subsequently the cells were cooled to 22° C. for 5 minutes in a water bath and agonists were added for 10 minutes. […] Res. Vol. 10, G. Brooker, P. Greengard and G. A. Robinson, Raven Press, New York, 2-34).
# [4] = system: HEK293 cells transfected with AC; assay: cAMP in HEK293 cells transiently transfected with AC; format: cell-based, human; conditions: FK506 2 μmol/l, L-685,818 100 μmol/l; 1 mmol/l IBMX, 0.1 mmol/l rolipram
# AtT20 cells [5] = assay: ACTH release by AtT20 cells; format: cell-based, mouse
# [6] = system: T1, GST fusion protein of the FKBP12 like domain (residues 594-611) of mouse AC
# T1 sequence: IDDSRESSGPRGQGTASP
# [7] = isoproterenol 2 nmol/l, pretreatment FK506 1 μmol/l or BAPTA/AM 20 μmol/l, IBMX 0.5 mmol/l, rolipram 0.1 mmol/l
# [8] = isoproterenol 10 nmol/l, pretreatment FK506 1 μmol/l or BAPTA/AM 20 μmol/l, IBMX 0.5 mmol/l, rolipram 0.1 mmol/l
# [9] = isoproterenol 1000 nmol/l, pretreatment FK506 1 μmol/l or BAPTA/AM 20 μmol/l, IBMX 0.5 mmol/l, rolipram 0.1 mmol/l
compound,measurement,setting,value
CNc1ccc2oc(C[C@H]3O[C@@]4(CC[C@H]3C)O[C@H]([C@H](C)C(=O)c3ccc[nH]3)[C@H](C)C[C@H]4C)nc2c1C(=O)O [A23187],cAMP response to CRF after lowering intracellular free Ca2+,AtT20 cells [1],markedly increased the cAMP response to CRF
"CC(=O)OCOC(=O)CN(CC(=O)OCOC(C)=O)c1ccccc1OCCOc1ccccc1N(CC(=O)OCOC(C)=O)CC(=O)OCOC(C)=O [BAPTA-AM, [1,2-bis-(o-Aninophenoxy)-ethane-N,N,N′,N′-tetraacetic acid tetra-(acetoxymethyl)-ester]]",isoproterenol induced cAMP formation,AtT20 cells [2],enhanced
same,cAMP accumulation,"AtT20 cells [2]; isoproterenol 0.4 nmol/l, pretreatment FK506 1 μmol/l or BAPTA/AM 20 μmol/l, IBMX 0.5 mmol/l, rolipram 0.1 mmol/l",0.96 ± 0.06
same,cAMP accumulation,AtT20 cells [2]; [7],3.6 ± 0.6
same,cAMP accumulation,AtT20 cells [2]; [8],11.4 ± 0.9
same,cAMP accumulation,"AtT20 cells [2]; isoproterenol 100 nmol/l, pretreatment FK506 1 μmol/l or BAPTA/AM 20 μmol/l, IBMX 0.5 mmol/l, rolipram 0.1 mmol/l",35.5 ± 3.4
same,cAMP accumulation,AtT20 cells [2]; [9],46.9 ± 9
same,enhancement of forskolin-evoked cAMP accumulation,AtT20 cells [3]; cells loaded with BAPTA-AM,15%
same,cAMP response to CRF after lowering intracellular free Ca2+,AtT20 cells [1],markedly increased the cAMP response to CRF
O=C(O)CN(CCOCCOCCN(CC(=O)O)CC(=O)O)CC(=O)O [EGTA],cAMP response to CRF after lowering intracellular free Ca2+,AtT20 cells [1],markedly increased the cAMP response to CRF
C=CC[C@@H]1/C=C(\C)C[C@H](C)C[C@H](OC)[C@H]2O[C@@](O)(C(=O)C(=O)N3CCCC[C@H]3C(=O)O[C@H](/C(C)=C/[C@@H]3CC[C@@H](O)[C@H](OC)C3)[C@H](C)[C@@H](O)CC1=O)[C@H](C)C[C@@H]2OC [FK506],cAMP accumulation,AtT20 cells [2]; [7],3.3 ± 0.7
same,cAMP accumulation,AtT20 cells [2]; [8],15.3 ± 2.5
same,cAMP accumulation,AtT20 cells [2]; [9],45.3 ± 9
same,cAMP accumulation evoked by forskolin,AtT20 cells [3]; 10 or 30 μM forskolin,no significant effect
same,unstimulated cAMP levels,[4],3 fold
same,EC50,"AtT20 cells [1]; Mus musculus, AtT20, read-out: apparent EC50 to augment cAMP accumulation induced by CRF",~10 nM
same,CRF-induced cAMP formation,"AtT20 cells [1]; extracellular free Ca2+ 0 mmol/l, 0.5 mmol/l IBMX",10.3 ± 0.10 pmol/well
same,CRF-induced cAMP formation,"AtT20 cells [1]; extracellular free Ca2+ 0.5 mmol/l, 0.5 mmol/l IBMX",10.0 ± 0.11 pmol/well
same,CRF-induced cAMP formation,"AtT20 cells [1]; extracellular free Ca2+ 1.0 mmol/l, 0.5 mmol/l IBMX",10.4 ± 0.10 pmol/well
same,CRF-induced cAMP formation,"AtT20 cells [1]; extracellular free Ca2+ 1.5 mmol/l, 0.5 mmol/l IBMX",11.3 ± 0.13 pmol/well
same,CRF-induced cAMP formation,"AtT20 cells [1]; extracellular free Ca2+ 2.0 mmol/l, 0.5 mmol/l IBMX",9.5 ± 0.11 pmol/well
same,EC50,"AtT20 cells [5]; Mus musculus, AtT20, read-out: apparent EC50 to stimulate ACTH release",~10 nM
CC(C)NCC(O)c1ccc(O)c(O)c1 (centres unmarked) [Isoproterenol],cAMP accumulation,"AtT20 cells [2]; isoproterenol 0.4 nmol/l, no pretreatment",0.7 ± 0.04
same,cAMP accumulation,"AtT20 cells [2]; isoproterenol 2 nmol/l, no pretreatment",2.0 ± 0.08
same,cAMP accumulation,"AtT20 cells [2]; isoproterenol 10 nmol/l, no pretreatment",9.5 ± 0.33
same,cAMP accumulation,"AtT20 cells [2]; isoproterenol 100 nmol/l, no pretreatment",19.5 ± .5
same,cAMP accumulation,"AtT20 cells [2]; isoproterenol 1000 nmol/l, no pretreatment",32.1 ± 0.5
C/C=C/C[C@@H](C)[C@@H](O)C1C(=O)N[C@@H](CC)C(=O)N(C)CC(=O)N(C)[C@@H](C(C)C)C(=O)N[C@@H](C(C)C)C(=O)N(C)[C@@H](CC(C)C)C(=O)N[C@@H](C)C(=O)N[C@H](C)C(=O)N(C)[C@@H](CC(C)C)C(=O)N(C)[C@@H](CC(C)C)C(=O)N(C)[C@@H](C(C)C)C(=O)N1C (some centres unmarked) [MeVal^4-cyclosporin A] (cyclo(A[dA][NMeL][NMeL][NMeV][ξNMeBmt][Abu][Sar][NMeV]V[NMeL])),CRF-induced cAMP production,"AtT20 cells [1]; 10 nmol/l CRF, 0.5 mmol/l IBMX, drug preincubated 30 minutes",enhanced CRF-induced cAMP production in a concentration dependent manner
"CRF: hypothalamic neuropeptide corticotropin-releasing factor (SEEPPISLDLTFHLLREVLEMARAEQLAQQAHSNRKLMEII; ends and bridges not checked; UniProt P06850 154-194, looked up)",cAMP level in the presence of CRF,AtT20 cells [1]; 10 nmol/l CRF (FIG. 3A),12 pmol/well*10minutes
same,increment of cAMP caused by CRF,"AtT20 cells [1]; 10 nmol/l CRF, 0.5 mmol/l isobutylmethylxanthine (FIG. 1)",6.1 pmol/well
same,CRF-stimulated ACTH release,"AtT20 cells [5]; FIG. 7A, value taken as 100%",22±1 fmol/well*30 minutes
cAMP dependent protein kinase,phosphorylation of the cyclase portion of the GST fusion protein,[6],can be phosphorylated by cAMP dependent protein kinase
"calcineurin (protein phosphatase 2B), as used on the GST fusion protein",dephosphorylation of the cyclase portion of the GST fusion protein,[6],dephosphorylated in a calcium dependent manner by calcineurin
pertussis toxin,suppression of CRF-induced cAMP formation by extracellular Ca2+,"AtT20 cells [1]; Ca2+-depleted cells, pertussis toxin treatment",had no effect on the suppression of CRF-induced cAMP formation by extracelluar Ca^2+
same,inhibitory G-protein function (somatostatin-mediated inhibition of cAMP formation),AtT20 cells [1]; pertussis toxin 1 μg/ml,strongly suppressed inhibitory G-protein function
